Assays:
Set-up in all cases: scale not given here
ABUTH Velvetleaf [1] = experiment: Postemergence herbicidal evaluation, ABUTH; format: in vivo, Abutilon theophrasti, Medic.; conditions: postemergence spray, rated about two-three weeks after treatment
Outline: (§1)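 Visual injury rating ~2–3 wk post-spray; replicate tests averaged. Two-week-old seedlings; foliar spray at 40 psi; 0.006–0.400 kg ai/ha in 80/20 acetone/water + 1.0% methylated seed oil.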

AMBEL Ragweed, Common [2] = experiment: Postemergence herbicidal evaluation, AMBEL; format: in vivo, Ambrosia artemisifolia, L.; conditions: postemergence spray, rated about two-three weeks after treatment
Outline: as §1

CASOB Sicklepod [3] = experiment: Postemergence herbicidal evaluation, CASOB; format: in vivo, Cassia obtusifolia, L.; conditions: postemergence spray, rated about two-three weeks after treatment
Outline: as §1

[4] = system: CHEAL Lambsquarters, Common; experiment: Postemergence herbicidal evaluation, CHEAL; format: in vivo, Chenopodium album, L.; conditions: postemergence spray, rated about two-three weeks after treatment
Outline: as §1

ECHOG Barnyardgrass [5] = experiment: Postemergence herbicidal evaluation, ECHOG; format: in vivo, Echinochloa crus-galli, (L.) Beau; conditions: postemergence spray, rated about two-three weeks after treatment
Outline: as §1

GALAP Galium [6] = experiment: Postemergence herbicidal evaluation, GALAP; format: in vivo, Galium aparine; conditions: postemergence spray, rated about two-three weeks after treatment
Outline: as §1

[7] = system: IPOHE Morningglory, Ivyleaf; experiment: Postemergence herbicidal evaluation, IPOHE; format: in vivo, Ipomoea hederacea, (L.) Jacq.; conditions: postemergence spray, rated about two-three weeks after treatment
Outline: as §1

SETVI Foxtail, Green [8] = experiment: Postemergence herbicidal evaluation, SETVI; format: in vivo, Setaria viridis, (L.) Beau; conditions: postemergence spray, rated about two-three weeks after treatment
Outline: as §1

GLXMAW Soybean, Williams [9] = experiment: Postemergence herbicidal evaluation, GLXMAW; format: in vivo, Glycine max, (L.) Merr. cv Williams; conditions: postemergence spray, rated about two-three weeks after treatment
Outline: as §1

[10] = system: TRZAWR Wheat, Winter, cv Riband; experiment: Postemergence herbicidal evaluation, TRZAWR; format: in vivo, Triticum aestivum; conditions: postemergence spray, rated about two-three weeks after treatment
Outline: as §1

ORYSAT Rice, Tebonnet [11] = experiment: Postemergence herbicidal evaluation, ORYSAT; format: in vivo, Oryza sativa, (L.); conditions: postemergence spray, rated about two-three weeks after treatment
Outline: as §1

ZEAMX Corn, Field [12] = experiment: Postemergence herbicidal evaluation, ZEAMX; format: in vivo, Zea mays, L. (Sammel-Bezeichnung); conditions: postemergence spray, rated about two-three weeks after treatment
Outline: as §1

ABUTH Velvetleaf [13] = experiment: Preemergence herbicidal evaluation, ABUTH; format: in vivo, Abutilon theophrasti, Medic.; conditions: preemergence
Outline: (§2)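 Visual ratings were taken four to five weeks after application. Before that, cups sown with seed in potting soil received a spray of compound dissolved in aqueous acetone, equivalent to about 0.013 to 0.800 kg/ha, and stood on greenhouse benches under conventional care.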

AMBEL Ragweed, Common [14] = experiment: Preemergence herbicidal evaluation, AMBEL; format: in vivo, Ambrosia artemisifolia, L.; conditions: preemergence
Outline: as §2

CASOB Sicklepod [15] = experiment: Preemergence herbicidal evaluation, CASOB; format: in vivo, Cassia obtusifolia, L.; conditions: preemergence
Outline: as §2

[16] = system: CHEAL Lambsquarters, Common; experiment: Preemergence herbicidal evaluation, CHEAL; format: in vivo, Chenopodium album, L.; conditions: preemergence
Outline: as §2

ECHOG Barnyardgrass [17] = experiment: Preemergence herbicidal evaluation, ECHOG; format: in vivo, Echinochloa crus-galli, (L.) Beau; conditions: preemergence
Outline: as §2

GALAP Galium [18] = experiment: Preemergence herbicidal evaluation, GALAP; format: in vivo, Galium aparine; conditions: preemergence
Outline: as §2

[19] = system: IPOHE Morningglory, Ivyleaf; experiment: Preemergence herbicidal evaluation, IPOHE; format: in vivo, Ipomoea hederacea, (L.) Jacq.; conditions: preemergence
Outline: as §2

SETVI Foxtail, Green [20] = experiment: Preemergence herbicidal evaluation, SETVI; format: in vivo, Setaria viridis, (L.) Beau; conditions: preemergence
Outline: as §2

GLXMAW Soybean, Williams [21] = experiment: Preemergence herbicidal evaluation, GLXMAW; format: in vivo, Glycine max, (L.) Merr. cv Williams; conditions: preemergence
Outline: as §2

[22] = system: TRZAWR Wheat, Winter, cv Riband; experiment: Preemergence herbicidal evaluation, TRZAWR; format: in vivo, Triticum aestivum; conditions: preemergence
Outline: as §2

ORYSAT Rice, Tebonnet [23] = experiment: Preemergence herbicidal evaluation, ORYSAT; format: in vivo, Oryza sativa, (L.); conditions: preemergence
Outline: as §2

ZEAMX Corn, Field [24] = experiment: Preemergence herbicidal evaluation, ZEAMX; format: in vivo, Zea mays, L. (Sammel-Bezeichnung); conditions: preemergence
Outline: as §2

Compound: Cc1ccc(O)cc1-n1nnc2cc(F)c(-n3c(=O)cc(C(F)(F)F)n(C)c3=O)cc21 [Example 32]
- Postemergence herbicidal rating ABUTH (ABUTH Velvetleaf [1]; 0.008 kg/ha): 0.0
- Postemergence herbicidal rating ABUTH (ABUTH Velvetleaf [1]; 0.016 kg/ha): 0.0
- Postemergence herbicidal rating ABUTH (ABUTH Velvetleaf [1]; 0.032 kg/ha): 0.0
- Postemergence herbicidal rating ABUTH (ABUTH Velvetleaf [1]; 0.062 kg/ha): 4.0
- Postemergence herbicidal rating AMBEL (AMBEL Ragweed, Common [2]; 0.008 kg/ha): 0.0
- Postemergence herbicidal rating AMBEL (AMBEL Ragweed, Common [2]; 0.016 kg/ha): 0.0
- Postemergence herbicidal rating AMBEL (AMBEL Ragweed, Common [2]; 0.032 kg/ha): 0.0
- Postemergence herbicidal rating AMBEL (AMBEL Ragweed, Common [2]; 0.062 kg/ha): 0.0
- Postemergence herbicidal rating CASOB (CASOB Sicklepod [3]; 0.008 kg/ha): 0.0
- Postemergence herbicidal rating CASOB (CASOB Sicklepod [3]; 0.016 kg/ha): 0.0
- Postemergence herbicidal rating CASOB (CASOB Sicklepod [3]; 0.032 kg/ha): 0.0
- Postemergence herbicidal rating CASOB (CASOB Sicklepod [3]; 0.062 kg/ha): 0.0
- Postemergence herbicidal rating CHEAL ([4]; 0.008 kg/ha): 0.0
- Postemergence herbicidal rating CHEAL ([4]; 0.016 kg/ha): 0.0
- Postemergence herbicidal rating CHEAL ([4]; 0.032 kg/ha): 0.0
- Postemergence herbicidal rating CHEAL ([4]; 0.062 kg/ha): 0.0
- Postemergence herbicidal rating ECHCG (ECHOG Barnyardgrass [5]; 0.008 kg/ha): 0.0
- Postemergence herbicidal rating ECHCG (ECHOG Barnyardgrass [5]; 0.016 kg/ha): 0.0
- Postemergence herbicidal rating ECHCG (ECHOG Barnyardgrass [5]; 0.032 kg/ha): 0.0
- Postemergence herbicidal rating ECHCG (ECHOG Barnyardgrass [5]; 0.062 kg/ha): 0.0
- Postemergence herbicidal rating GALAP (GALAP Galium [6]; 0.008 kg/ha): 0.0
- Postemergence herbicidal rating GALAP (GALAP Galium [6]; 0.016 kg/ha): 0.0
- Postemergence herbicidal rating GALAP (GALAP Galium [6]; 0.032 kg/ha): 0.0
- Postemergence herbicidal rating GALAP (GALAP Galium [6]; 0.062 kg/ha): 0.0
- Postemergence herbicidal rating IPOHE ([7]; 0.008 kg/ha): 0.0
- Postemergence herbicidal rating IPOHE ([7]; 0.016 kg/ha): 0.0
- Postemergence herbicidal rating IPOHE ([7]; 0.032 kg/ha): 0.0
- Postemergence herbicidal rating IPOHE ([7]; 0.062 kg/ha): 0.0
- Postemergence herbicidal rating SETVI (SETVI Foxtail, Green [8]; 0.008 kg/ha): 0.0
- Postemergence herbicidal rating SETVI (SETVI Foxtail, Green [8]; 0.016 kg/ha): 0.0
- Postemergence herbicidal rating SETVI (SETVI Foxtail, Green [8]; 0.032 kg/ha): 0.0
- Postemergence herbicidal rating SETVI (SETVI Foxtail, Green [8]; 0.062 kg/ha): 0.0
- Postemergence herbicidal rating GLXMAW (GLXMAW Soybean, Williams [9]; 0.008 kg/ha): 2.0
- Postemergence herbicidal rating GLXMAW (GLXMAW Soybean, Williams [9]; 0.016 kg/ha): 2.5
- Postemergence herbicidal rating GLXMAW (GLXMAW Soybean, Williams [9]; 0.032 kg/ha): 3.0
- Postemergence herbicidal rating GLXMAW (GLXMAW Soybean, Williams [9]; 0.062 kg/ha): 3.0
- Postemergence herbicidal rating TRZAWR ([10]; 0.008 kg/ha): 1.0
- Postemergence herbicidal rating TRZAWR ([10]; 0.016 kg/ha): 2.5
- Postemergence herbicidal rating TRZAWR ([10]; 0.032 kg/ha): 2.5
- Postemergence herbicidal rating TRZAWR ([10]; 0.062 kg/ha): 3.0
- Postemergence herbicidal rating ORYSAT (ORYSAT Rice, Tebonnet [11]; 0.008 kg/ha): 1.0
- Postemergence herbicidal rating ORYSAT (ORYSAT Rice, Tebonnet [11]; 0.016 kg/ha): 1.5
- Postemergence herbicidal rating ORYSAT (ORYSAT Rice, Tebonnet [11]; 0.032 kg/ha): 1.5
- Postemergence herbicidal rating ORYSAT (ORYSAT Rice, Tebonnet [11]; 0.062 kg/ha): 2.0
- Postemergence herbicidal rating ZEAMX (ZEAMX Corn, Field [12]; 0.008 kg/ha): 2.0
- Postemergence herbicidal rating ZEAMX (ZEAMX Corn, Field [12]; 0.016 kg/ha): 2.5
- Postemergence herbicidal rating ZEAMX (ZEAMX Corn, Field [12]; 0.032 kg/ha): 2.5
- Postemergence herbicidal rating ZEAMX (ZEAMX Corn, Field [12]; 0.062 kg/ha): 2.5
- ABUTH herbicidal rating (ABUTH Velvetleaf [13]; rate 0.016 kg/ha): 0.0
- ABUTH herbicidal rating (ABUTH Velvetleaf [13]; rate 0.032 kg/ha): 0.0
- ABUTH herbicidal rating (ABUTH Velvetleaf [13]; rate 0.062 kg/ha): 0.0
- ABUTH herbicidal rating (ABUTH Velvetleaf [13]; rate 0.125 kg/ha): 4.0
- AMBEL herbicidal rating (AMBEL Ragweed, Common [14]; rate 0.016 kg/ha): 0.0
- AMBEL herbicidal rating (AMBEL Ragweed, Common [14]; rate 0.032 kg/ha): 0.0
- AMBEL herbicidal rating (AMBEL Ragweed, Common [14]; rate 0.062 kg/ha): 0.0
- AMBEL herbicidal rating (AMBEL Ragweed, Common [14]; rate 0.125 kg/ha): 0.0
- CASOB herbicidal rating (CASOB Sicklepod [15]; rate 0.016 kg/ha): 0.0
- CASOB herbicidal rating (CASOB Sicklepod [15]; rate 0.032 kg/ha): 0.0
- CASOB herbicidal rating (CASOB Sicklepod [15]; rate 0.062 kg/ha): 0.0
- CASOB herbicidal rating (CASOB Sicklepod [15]; rate 0.125 kg/ha): 0.0
- CHEAL herbicidal rating ([16]; rate 0.016 kg/ha): 0.0
- CHEAL herbicidal rating ([16]; rate 0.032 kg/ha): 0.0
- CHEAL herbicidal rating ([16]; rate 0.062 kg/ha): 0.0
- CHEAL herbicidal rating ([16]; rate 0.125 kg/ha): 6.0
- ECHCG herbicidal rating (ECHOG Barnyardgrass [17]; rate 0.016 kg/ha): 0.0
- ECHCG herbicidal rating (ECHOG Barnyardgrass [17]; rate 0.032 kg/ha): 0.0
- ECHCG herbicidal rating (ECHOG Barnyardgrass [17]; rate 0.062 kg/ha): 0.0
- ECHCG herbicidal rating (ECHOG Barnyardgrass [17]; rate 0.125 kg/ha): 0.0
- GALAP herbicidal rating (GALAP Galium [18]; rate 0.016 kg/ha): 0.0
- GALAP herbicidal rating (GALAP Galium [18]; rate 0.032 kg/ha): 0.0
- GALAP herbicidal rating (GALAP Galium [18]; rate 0.062 kg/ha): 0.0
- IPOHE herbicidal rating ([19]; rate 0.016 kg/ha): 0.0
- IPOHE herbicidal rating ([19]; rate 0.032 kg/ha): 0.0
- IPOHE herbicidal rating ([19]; rate 0.062 kg/ha): 0.0
- IPOHE herbicidal rating ([19]; rate 0.125 kg/ha): 0.0
- SETVI herbicidal rating (SETVI Foxtail, Green [20]; rate 0.016 kg/ha): 0.0
- SETVI herbicidal rating (SETVI Foxtail, Green [20]; rate 0.032 kg/ha): 0.0
- SETVI herbicidal rating (SETVI Foxtail, Green [20]; rate 0.062 kg/ha): 0.0
- SETVI herbicidal rating (SETVI Foxtail, Green [20]; rate 0.125 kg/ha): 0.0
- GLXMAW herbicidal rating (GLXMAW Soybean, Williams [21]; rate 0.016 kg/ha): 0.0
- GLXMAW herbicidal rating (GLXMAW Soybean, Williams [21]; rate 0.032 kg/ha): 0.0
- GLXMAW herbicidal rating (GLXMAW Soybean, Williams [21]; rate 0.062 kg/ha): 0.0
- GLXMAW herbicidal rating (GLXMAW Soybean, Williams [21]; rate 0.125 kg/ha): 1.0
- TRZAWR herbicidal rating ([22]; rate 0.016 kg/ha): 0.0
- TRZAWR herbicidal rating ([22]; rate 0.032 kg/ha): 0.0
- TRZAWR herbicidal rating ([22]; rate 0.062 kg/ha): 0.0
- TRZAWR herbicidal rating ([22]; rate 0.125 kg/ha): 0.0
- ORYSAT herbicidal rating (ORYSAT Rice, Tebonnet [23]; rate 0.016 kg/ha): 0.0
- ORYSAT herbicidal rating (ORYSAT Rice, Tebonnet [23]; rate 0.032 kg/ha): 0.0
- ORYSAT herbicidal rating (ORYSAT Rice, Tebonnet [23]; rate 0.062 kg/ha): 0.0
- ORYSAT herbicidal rating (ORYSAT Rice, Tebonnet [23]; rate 0.125 kg/ha): 0.0
- ZEAMX herbicidal rating (ZEAMX Corn, Field [24]; rate 0.016 kg/ha): 0.0
- ZEAMX herbicidal rating (ZEAMX Corn, Field [24]; rate 0.032 kg/ha): 0.0
- ZEAMX herbicidal rating (ZEAMX Corn, Field [24]; rate 0.062 kg/ha): 0.0
- ZEAMX herbicidal rating (ZEAMX Corn, Field [24]; rate 0.125 kg/ha): 1.0

Source: patent US20020111274A1, “1-alkyl-3-[1-(substituted phenyl) benzotriazol-6-yl] uracils” (BASF Aktiengesellschaft, priority 2000, published 2002)
